Measured values: paper PMC12704579, “New Anticancer 4‐Aryldihydropyrimidinone‐5‐Carboxylates Targeting Hsp90” (Chemical Biology & Drug Design, 2025)
Values after ≈ are worked out from the molar mass of the structure shown. Values joined by “and” are separate entries in the source; they are usually repeats but may differ in a detail not shown here. Identical values can stand only once. Like-named read-outs stand apart in the source and are kept apart here.

Columns and labels:
[1] = CellTiter-Blue cell viability assay, HEK-293 (24 h); assay type: cell-based, human; settings: human, HEK-293 cells, CellTiter-Blue, 24 h incubation, 10 μM test compound, standardised to DMSO control
Experimental: (§1) Human Embryonic Kidney cells (HEK‐293) and human breast cancer cells (MCF‐7, MDA‐MB‐231 and HCC1954) were cultured in complete growth media: […] 1X (Gibco); 10% v/v Fetal Bovine Serum (FBS, Sigma Dorset UK) and L‐glutamine (2 mM, Invitrogen). SW‐480‐WT cells were maintained in selective media made up of Dulbecco's Modified Eagle Medium (Gibco), enriched with […] of Geneticin Selective Antibiotic (G418 Sulfate; Gibco, Thermo Fisher). Cells were incubated at a 5% CO2 atmosphere at 37°C.
(§2) Cells were cultured in 96‐well plates in 90 μL at a seeding density of 1 × 10^6 cells per well. Compound samples were prepared at different concentrations (1 mM, 100 μM, 10 μM, 1 μM, 100 nM, 10 nM) and 10 μL of each concentration was seeded in each well. Two different negative controls were used: DMSO 0.01% and 0.001%. Paclitaxel (30% w/v) was used as a positive control. Cells were treated for 24 h after which 20 μL of CellTitre‐Blue reagent (Promega, Southampton, UK) was added and incubated for 2 h at 37°C in 5% CO2. Fluorescence was measured at 560/590 nm on a Fluorostar Optima plate reader (BMG Labtech, Bucks, UK). Assay end points were normalised to 0% (DMSO only) and fitted to a semilog plot using at least n = 3 technical replicates (n = 6 for DMSO control and paclitaxel control) and N = 3 independent replicates. The curve fit was performed using the GraphPad Prism software and the standard Hill equation.
(§3) In view of previous reports on Hsp90 inhibitors and their effects on cancer cell viability (Eachkoti et al. [2014]) and clonogenicity (Kinzel et al. [2016]), new compounds were tested for inhibition of cell viability within both non‐tumourigenic (HEK‐293) and breast cancer cell lines (MDA‐MB‐231) at a fixed concentration of 10 μM. The well‐established CellTiter‐Blue endpoint assay was used to assess cell viability. New compounds were also assessed in a colony forming assay (MCF‐7 breast cancer cell line), used as an efficacy screening to provide an indication of the inhibition of clonogenicity for these small molecules (Table 1).

HEK-293 cells = experiment: as above; assay type: cell-based, human; settings: for GI50: Homo sapiens, HEK293, 24 h incubation time
Experimental: as §1, §2, §3

MDA-MB-231 cells = experiment: CellTiter-Blue cell viability assay, MDA-MB-231 (24 h); assay type: cell-based, human; settings: for GI50 / viability at 10 µM: Homo sapiens, MDA-MB-231, 24 h; for GI50: 24 h incubation time
Experimental: as §1, §2, §3

MCF-7 cells = experiment: Colony forming assay, MCF-7; assay type: cell-based, human; settings: for IC50: Homo sapiens, MCF7, 168 h, 7 days; for % Clonogenicity (MCF-7, 10 μM): percentage of survival colonies, 7-day incubation, standardised to DMSO control
Experimental: as §1
Cells were seeded in a 12‐well plate at 400 cells per well. One hour after the seeding of the cells, compounds (1 mM, 100 μM, 10 μM, 1 μM, 100 nM, 10 nM) or vehicle were added into the wells in triplicate (DMSO vehicle 0.1% and 1%). After 7 days, colonies were stained with 350 μL of crystal violet solution, incubated for 30 min at room temperature, then wells were washed in water and dried. At least the best 3 independent experiments out of 5 independent repeats were used to perform the statistical analysis of the results. Colonies were counted by GelCount Colony Counter (Oxford Optronix Ltd.) using the GelCount 1.1.8.0 software. Assay end points were normalised to 0% (DMSO only) and fitted to a semi‐log plot using at least n = 3 technical replicates (n = 6 for DMSO control and N = 3 independent replicates). The curve fit was performed using GraphPad Prism.
as §3

[2] = Caco-2 membrane permeability (Cyprotex); assay type: in vitro ADME; settings: human, Caco-2
Experimental: (§4) All the selected analogues were calculated to be compliant with the Lipinski rule‐of‐five guidelines for oral bioavailability. Furthermore, in vitro ADME (absorption, distribution, metabolism, excretion) properties were assessed as an outsourced service (Cyprotex Discovery Ltd., UK; part of the EvoTec Group); profiling membrane permeability (Caco‐2 cell model), hERG channel cardiotoxicity, human microsomal stability and turbidometric solubility (Table 4).

Caco-2 cell model = experiment: Caco-2 membrane permeability (Cyprotex); assay type: in vitro ADME
Experimental: as §4

hERG channel = target: T1, hERG channel (Homo sapiens, UniProt Q12809); experiment: hERG channel cardiotoxicity assay (Cyprotex)
T1 construct: Cyprotex Discovery Ltd., UK
Experimental: as §4

[3] = Human microsomal stability (Cyprotex); assay type: in vitro ADME; settings: human microsomes; for microsomal CLint: read-out: Metabolic stability (human microsomes) CLint; for half-life: read-out: Metabolic stability (human microsomes) Half-life
Experimental: as §4

[4] = Turbidometric solubility (Cyprotex); assay type: physicochemical; settings: kinetic from dmso stock
Experimental: as §4

[5] = system: HCC1954, MCF-7 and HEK-293 cells; experiment: Growth inhibition assay (CellTitre-Blue endpoint), 72 h incubation; assay type: cell-based, human; settings: paclitaxel positive control, Figure 3
Experimental: as §2, with “equation. […]” for “equation.”
FIGURE 3 Growth inhibition assay (CellTitre‐Blue endpoint) in human breast cancer cell lines HCC1954 and MCF‐7, and non‐tumorigenic HEK‐293 cells for hit compounds 5d and 5e (72 h incubation). Growth inhibition is represented by the percentage of relative fluorescence units standardised to DMSO control. […]

[6] = CellTiter-Blue, 24 h incubation, 10 μM test compound, standardised to DMSO control, 10 µM
[7] = CellTiter-Blue, 24 h incubation, 10 μM test compound, standardised to DMSO control
[8] = read-out: Solubility - estimated precipitation range, Calc. mid-range
[9] = read-out: Solubility - estimated precipitation range, Lower-bound
[10] = read-out: Solubility - estimated precipitation range, Upper-bound

T1 sequence (Q12809 whole entry): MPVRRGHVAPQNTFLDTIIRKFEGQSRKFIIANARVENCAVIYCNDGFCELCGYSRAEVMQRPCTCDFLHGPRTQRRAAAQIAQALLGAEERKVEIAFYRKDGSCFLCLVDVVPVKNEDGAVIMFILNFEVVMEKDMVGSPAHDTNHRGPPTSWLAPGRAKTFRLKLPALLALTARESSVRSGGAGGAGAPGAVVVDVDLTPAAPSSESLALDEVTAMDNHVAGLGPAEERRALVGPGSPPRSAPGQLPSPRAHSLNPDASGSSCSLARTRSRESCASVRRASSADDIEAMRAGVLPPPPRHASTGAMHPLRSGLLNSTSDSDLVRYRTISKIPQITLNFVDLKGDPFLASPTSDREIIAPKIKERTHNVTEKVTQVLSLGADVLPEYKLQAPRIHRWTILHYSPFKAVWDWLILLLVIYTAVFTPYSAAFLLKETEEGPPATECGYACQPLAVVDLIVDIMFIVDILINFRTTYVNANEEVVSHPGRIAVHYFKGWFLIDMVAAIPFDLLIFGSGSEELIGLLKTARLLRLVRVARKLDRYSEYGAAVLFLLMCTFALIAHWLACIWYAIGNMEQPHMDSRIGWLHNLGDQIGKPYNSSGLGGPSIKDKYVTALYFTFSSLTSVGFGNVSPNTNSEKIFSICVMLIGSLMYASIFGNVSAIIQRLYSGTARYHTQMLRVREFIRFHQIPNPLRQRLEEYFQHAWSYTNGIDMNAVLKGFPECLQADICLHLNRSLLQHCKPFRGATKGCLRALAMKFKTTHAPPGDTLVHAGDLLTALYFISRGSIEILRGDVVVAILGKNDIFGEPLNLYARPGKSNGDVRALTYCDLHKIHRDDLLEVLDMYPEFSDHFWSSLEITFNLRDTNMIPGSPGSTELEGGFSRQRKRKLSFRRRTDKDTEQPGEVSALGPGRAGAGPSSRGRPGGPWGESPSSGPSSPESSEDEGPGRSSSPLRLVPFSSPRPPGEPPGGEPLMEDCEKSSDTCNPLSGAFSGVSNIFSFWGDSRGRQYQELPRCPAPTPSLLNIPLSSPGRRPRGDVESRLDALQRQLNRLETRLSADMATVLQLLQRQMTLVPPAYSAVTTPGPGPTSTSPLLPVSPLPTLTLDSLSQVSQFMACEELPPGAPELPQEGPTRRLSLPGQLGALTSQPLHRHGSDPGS

GI50 (MDA-MB-231 cells) | IC50 (MCF-7 cells) | efflux ratio [2] | Caco-2 permeability Efflux ratio (Caco-2 cell model) | microsomal CLint [3] | half-life [3] | solubility [4, 8] | solubility [4, 9] | solubility [4, 10] | Structure (SMILES) | viability at 24 h, 10 µM [1] | % Viability (HEK-293, 10 μM) (HEK-293 cells; [6]) | GI50 (HEK-293 cells) | % Viability (MDA-MB-231, 10 μM) (MDA-MB-231 cells; [6]) | viability at 10 µM (MDA-MB-231 cells; [7]) | % Clonogenicity (MCF-7, 10 μM) (MCF-7 cells) | IC50 (hERG channel) | Growth inhibitory effect / effect on cell viability, longer incubation [5]
12.6 µM | 0.91 µM | > 2 | 2.74 | 108 µL/min/mg | 12.8 min | 65 µM (≈ 26.1 µg/mL) | 30 µM (≈ 12 µg/mL) | 100 µM (≈ 40.1 µg/mL) | COc1ccc(COC(=O)C2=C(C)NC(=O)NC2c2ccc(Cl)cc2)cc1C (centres unmarked) [Compound 5e, 4‐Methoxy‐3‐Methylbenzyl‐4‐(4‐Chlorophenyl)‐6‐Methyl‐2‐Oxo‐1,2,3,4‐Tetrahydropyrimidine‐5‐Carboxylate] | 82% | 82.07 ± 1.28% | 86.3 µM | 79.43 ± 8.8% | < 80% | 59.96 ± 1.95% | > 25 µM | comparable to the cytotoxic drug control paclitaxel
79.3 µM | 0.29 µM | > 2 | 2.26 | 34.6 µL/min/mg | 40.1 min | 3.75 µM (≈ 1.55 µg/mL) | 1 µM (≈ 0.414 µg/mL) | 6.5 µM (≈ 2.69 µg/mL) | COc1ccc(C2NC(=O)NC(C)=C2C(=O)OCc2ccc3c(c2)OCO3)c(F)c1 (centres unmarked) [Compound 5d, Benzo[d][1,3]dioxol‐5‐ylmethyl‐4‐(2‐Fluoro‐4‐Methoxyphenyl)‐6‐Methyl‐2‐Oxo‐1,2,3,4‐Tetrahydropyrimidine‐5‐Carboxylate] | 99.9 ± 4.53% |  | 92.4 µM |  | 86.3 ± 3.8% | 49.75% and 49.75 ± 4.35% | > 25 µM | devoid of significant effects on cell viability
